Data on 3 compounds can be found in ChEMBL document CHEMBL1130420 (J Med Chem, 1997).

Each structure is given as a SMILES string.

Assay [1] deals with T1, Estrogen receptor (Homo sapiens, UniProt Q92731+P03372). As to conditions: t-47d.
Description: Apparent binding affinity against estradiol-stimulated T-47D cell proliferation
Assay [2] addresses T1, Estrogen receptor. The note with it: t-47d. This is another data set of the same source.
Description: Inhibition of estradiol-stimulated T-47D cell proliferation.
For assay [3], the target named is T2, Estrogen receptor (Mus musculus) (UniProt O08537+P19785). As to the kind of experiment: (§1) Uterine weight after 9 day treatment at 4.7 ug by oral gavage to ovariectomised mice without estrone. It is filed as functional, tissue-based. The note with it: Uterus.
The target of assay [4] is T2, Estrogen receptor (Mus musculus). As to the kind of experiment: Uterine weight after 9 day treatment at 4.7 ug by oral gavage to ovariectomised mice with estrone. The class given is functional, tissue-based. The note with it: Uterus.
For assay [5] the target is unchanged. As to the kind of experiment: (§2) Uterine weight after 9 day treatment at 16 ug by oral gavage to ovariectomised mice with estrone. It is filed as functional, tissue-based. The note with it: Uterus.
The target of assay [6] is T1, Estrogen receptor. As to the kind of experiment: Relative Binding Affinity for estrogen receptor in Human Breast cancer or normal uterine cytosol in 3.3%ethanol compared to estradiol. The class given is protein assay. As to conditions: Uterus.
Assay [7] has as its target T2, Estrogen receptor (Mus musculus). As to the kind of experiment: (§3) Uterine weight after 9 day treatment at 16 ug by oral gavage to ovariectomised mice without estrone. The note with it: Uterus. The class given is functional, tissue-based.
In assay [8] the target is T1, Estrogen receptor.
Description: Inhibition of estradiol binding to estrogen receptor in Human Breast cancer cytosol (3.3% ethanol)
Assay [9] addresses T2, Estrogen receptor (Mus musculus). As to the kind of experiment: Uterine weight after 9 day treatment at 1.6 ug by oral gavage to ovariectomised mice without estrone. The class given is functional, tissue-based. As to conditions: Uterus.
Assay [10] has the same target. As to the kind of experiment: (§4) Uterine weight after 9 day treatment at 0.47 ug by oral gavage to ovariectomised mice with estrone. It is filed as functional, tissue-based. The note with it: Uterus.
For assay [11] the target is unchanged. As to the kind of experiment: (§5) Uterine weight after 9 day treatment at 0.47 ug by oral gavage to ovariectomised mice without estrone. It is filed as functional, tissue-based. As to conditions: Uterus.
The target is the same in assay [12]. As to the kind of experiment: Uterine weight after 9 day treatment at 47 ug by oral gavage to ovariectomised mice with estrone. As to conditions: Uterus. It is filed as functional, tissue-based.
The target is the same in assay [13]. As to the kind of experiment: (§6) Uterine weight after 9 day treatment at 1.6 ug by oral gavage to ovariectomised mice with estrone. The class given is functional, tissue-based. The note with it: Uterus.
For assay [14] the target is unchanged. As to the kind of experiment: (§7) Uterine weight after 9 day treatment at 47 ug by oral gavage to ovariectomised mice without estrone. It is filed as functional, tissue-based. The note with it: Uterus.
The target in assay [15] is T1, Estrogen receptor. As to the kind of experiment: Stimulation of alkaline phosphatase activity in human endometrial Ishikawa cells with 1 nM E2 estradiol. It is filed as functional, cell-based.
Assay [16] has as its target T2, Estrogen receptor (Mus musculus). The description is as §7. It is filed as functional, tissue-based. The note with it: Uterus. This is another data set of the same source.
The target is the same in assay [17]. The assay is described as §6. The note with it: Uterus. The class given is functional, tissue-based. The source holds these as a separate data set.
Assay [18] has the same target. The description is as §1. The class given is functional, tissue-based. As to conditions: Uterus. This is another data set of the same source.
Assay [19] has as its target T1, Estrogen receptor. This is another data set of the same source.
Description: Apparent inhibition constant for estrogen receptor in Human uterine cytosol in 3.3%ethanol
The target in assay [20] is T2, Estrogen receptor (Mus musculus). Described as §1. The class given is functional, tissue-based. The note with it: Uterus. This is another data set of the same source.
Assay [21] shares this target. The description is as §5. The class given is functional, tissue-based. The note with it: Uterus. This is another data set of the same source.
Assay [22] has the same target. Described as §3. The class given is functional, tissue-based. As to conditions: Uterus. The source holds these as a separate data set.
For assay [23] the target is unchanged. Described as §2. As to conditions: Uterus. The class given is functional, tissue-based. The source holds these as a separate data set.
Assay [24] shares this target. Described as §7. It is filed as functional, tissue-based. The note with it: Uterus. This is another data set of the same source.
For assay [25] the target is unchanged. The description is as §4. The class given is functional, tissue-based. As to conditions: Uterus. The source holds these as a separate data set.

T2 sequence (O08537 whole entry, looked up): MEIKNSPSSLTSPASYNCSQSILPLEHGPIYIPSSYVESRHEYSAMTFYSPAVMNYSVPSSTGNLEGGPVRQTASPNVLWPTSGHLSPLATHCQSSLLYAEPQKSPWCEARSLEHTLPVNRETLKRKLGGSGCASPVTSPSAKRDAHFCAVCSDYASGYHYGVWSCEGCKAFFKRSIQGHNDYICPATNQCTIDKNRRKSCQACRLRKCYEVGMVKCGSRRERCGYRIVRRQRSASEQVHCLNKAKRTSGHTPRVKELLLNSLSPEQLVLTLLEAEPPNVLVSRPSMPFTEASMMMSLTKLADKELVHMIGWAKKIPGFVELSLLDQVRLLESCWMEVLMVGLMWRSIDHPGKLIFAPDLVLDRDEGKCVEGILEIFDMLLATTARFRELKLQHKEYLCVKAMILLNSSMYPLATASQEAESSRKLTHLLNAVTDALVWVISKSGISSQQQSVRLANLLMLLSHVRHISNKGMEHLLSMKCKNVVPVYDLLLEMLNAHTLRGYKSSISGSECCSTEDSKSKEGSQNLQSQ
T2 sequence (P19785 whole entry, looked up): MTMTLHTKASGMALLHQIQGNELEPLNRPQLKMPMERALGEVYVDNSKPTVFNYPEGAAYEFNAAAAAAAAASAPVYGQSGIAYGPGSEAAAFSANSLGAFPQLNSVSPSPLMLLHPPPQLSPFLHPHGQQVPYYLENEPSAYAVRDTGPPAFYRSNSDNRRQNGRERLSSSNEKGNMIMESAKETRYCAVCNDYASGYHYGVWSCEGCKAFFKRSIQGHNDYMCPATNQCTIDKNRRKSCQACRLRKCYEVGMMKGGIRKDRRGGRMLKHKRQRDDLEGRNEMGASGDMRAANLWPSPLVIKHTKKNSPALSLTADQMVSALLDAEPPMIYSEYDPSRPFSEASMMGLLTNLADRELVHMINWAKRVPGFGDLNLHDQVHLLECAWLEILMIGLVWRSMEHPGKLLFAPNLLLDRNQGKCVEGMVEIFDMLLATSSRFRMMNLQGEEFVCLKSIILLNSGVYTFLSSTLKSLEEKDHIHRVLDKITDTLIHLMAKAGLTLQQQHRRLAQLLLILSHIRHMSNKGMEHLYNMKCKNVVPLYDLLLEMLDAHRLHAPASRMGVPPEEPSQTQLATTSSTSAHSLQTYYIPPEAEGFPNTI

In [1], `Oc1ccc(C2=Cc3ccc(O)cc3OC2c2ccc(OCCN3CCCCC3)cc2)cc1` (stereo unspecified) gave a Ki of 0.525 nM. Besides, the IC50 in [2] is 4.6 nM.
Consider `CC1=C(c2ccc(OC(=O)C(C)(C)C)cc2)[C@@H](c2ccc(OCCN3CCCCC3)cc2)Oc2cc(OC(=O)C(C)(C)C)ccc21`, for which the Weight in [3] amounted to 19.8 mg; in assay [4], 91.2 mg; in assay [5], 75.7 mg; in [7] it was 15.7 mg; in [9] it was 17.2 mg; in assay [10], 83.1 mg. Besides, the Weight was 16.5 mg in [11], 61.1 mg in assay [12], 88.6 mg in [13] and 18 mg in assay [14]. Besides, the RBA in assay [6] is less than 0.04. Besides, the Ki in assay [8] is given as greater than 270 nM; in assay [1] it was 4.22 nM. This compound showed an IC50 in assay [2] of 36.2 nM.
`CC1=C(c2ccc(OC(=O)C(C)(C)C)cc2)[C@H](c2ccc(OCCN3CCCCC3)cc2)Oc2cc(OC(=O)C(C)(C)C)ccc21`: the concentration for half-maximal inhibition (IC50) is 1.3 nM in [15] and 0.14 nM in assay [2]. For the same compound, the inhibitory constant (Ki) in assay [15] was found to be 0.023 nM; in assay [19], 11.14 nM; in assay [8], 4.71 nM; in [1], 0.016 nM. In addition, the Weight in assay [16] came out at 25 mg; in assay [17], 53 mg; in [3], 24.5 mg; in [18], 35.3 mg; in assay [4], 33.3 mg; in assay [5], 28.9 mg. For the same compound, the Weight amounted to 19.4 mg in assay [7]; 24.7 mg in assay [20]; 21 mg in assay [21]; 24 mg in assay [22]; 29.2 mg in assay [23]; 28.1 mg in assay [24]. The Weight in assay [25] was determined as 84 mg; in [9], 24.1 mg; in [10], 72.9 mg; in [11], 19 mg; in assay [12], 31.7 mg; in assay [13] it was 53.4 mg. In assay [14], the Weight is 21.1 mg.
